EC50 data for 30 molecules are collected here from patent US10526323B2, “Indazole and azaindazole substituted compounds as mGluR4 allosteric potentiators, compositions, and methods of treating neurological dysfunction” (Vanderbilt University, priority 2015, dated 2020).

For this assay, the target named is mGluR4 (UniProt Q14833). As to the kind of experiment: mGluR4 potentiation assay: increase in response to an EC20 concentration of agonist (species not given). It is filed as cell-based. Particulars: EC50 for potentiation of mGluR4; table does not state human or rat. The protocol: The disclosed compounds and compositions can be evaluated for their ability to act as a potentiator of metabotropic glutamate receptor activity, in particular mGluR4 activity, by any suitable known methodology known in the art. For example, Chinese Hamster Ovary (CHO) cells transfected with human mGluR4 or […] co-transfected with rat mGluR4 and the G-protein regulated Inwardly Rectifying Potassium channel (GIRK) were plated in clear bottom assay plates for assay in a Hamamatsu FDSS Fluorometric Plate Reader. The cells were loaded with either a Ca2+-sensitive fluorescent dye or the thallium responsive dye and the plates were washed and placed into a suitable kinetic plate reader. For human mGluR4 assays, a fluorescence baseline was established for 3-5 seconds, the disclosed compounds were then added to the cells, and the response in cells was measured. Approximately two and a half minutes later, a concentration of mGluR4 orthosteric agonist (e.g. glutamate or L-AP4) eliciting approximately 20% (EC20) of the maximal agonist response was added to the cells, and the response was measured. Two minutes later, a concentration of mGluR4 agonist (e.g. glutamate or L-AP4) eliciting 80% (EC80) of the maximal agonist response was added to the cells, and the response was measured. For rat mGluR4/GIRK experiments, a baseline was established for approximately five seconds, disclosed compounds were added, and either an EC20 or EC80 concentration of agonist was added approximately two and one half minutes later. Potentiation of the agonist response of mGluR4 by the disclosed compounds was observed as an increase in response to the EC20 concentration of agonist in the presence of compound compared to the response to agonist in the absence of compound. Similarly, antagonism of the agonist response of mGluR4 by the disclosed compounds was observed as a decrease in response to the EC80 concentration of agonist in the presence of compound compared to the response to agonist in the absence of compound.
The above described assay operated in two modes. In the first mode, a range of concentrations of the disclosed compounds are added to cells, followed by a single fixed concentration of agonist. If the compound acts as a potentiator, an EC50 value for potentiation and a maximum extent of potentiation by the compound at this concentration of agonist is determined by non-linear curve fitting. If the compound acts as a noncompetitive antagonist, an IC50 value is determined by non-linear curve fitting. In the second mode, several fixed concentrations of the disclosed compounds are added to various wells on a plate, followed by a range in concentrations of agonist for each concentration of disclosed compound. The EC50 values for the agonist at each concentration of compound are determined by non-linear curve fitting. A decrease in the EC50 value of the agonist with increasing concentrations of the sample compound (a leftward shift of the agonist concentration-response curve) is an indication of the degree of mGluR4 potentiation at a given concentration of the sample compound. A decrease in the maximal response of the agonist with increasing concentrations of the sample compounds, with or without a rightward shift in agonist potency, is an indication of the degree of noncompetitive antagonism at mGluR4. The second mode also indicates whether the sample compounds also affect the maximum response to mGluR4 to agonists.
These compounds are positive allosteric modulators (potentiators) of human and rat mGluR4 and were selective for mGluR4 compared to the other seven subtypes of metabotropic glutamate receptors.
`CCc1nn(C)c2cc(Nc3n[nH]c4cccnc34)ccc12` [Example 24, N-(3-ethyl-1-methyl-1H-indazol-6-yl)-1H-pyrazolo[4,3-b]pyridin-3-amine]: the EC50 (in general, the concentration that produces a half-maximal response) turned out to be 38 nM. The figure for `Cc1nn(CC2CCC2)c2ccc(Nc3n[nH]c4ccccc34)cc12` [Example 71, N-(1-(cyclobutylmethyl)-3-methyl-1H-indazol-5-yl)-1H-indazol-3-amine] is 342 nM; for `Cn1nc(C(=O)N2CCCC(F)(F)C2)c2ccc(Nc3n[nH]c4cccnc34)cc21` [Example 160, (3,3-difluoro-1-piperidyl)-[1-methyl-6-(1H-pyrazolo[4,3-b]pyridin-3-ylamino)indazol-3-yl]methanone] it is 888 nM. The figure for `Cn1ncc2c(Cl)cc(Nc3n[nH]c4ncccc34)cc21` [Example 6, N-(4-chloro-1-methyl-1H-indazol-6-yl)-1H-pyrazolo[3,4-b]pyridin-3-amine] is 51 nM; for `Cc1cc(Cn2nc(C)c3cc(Nc4n[nH]c5nccnc45)ccc32)no1` [Example 69, N-(3-methyl-1-((5-methylisoxazol-3-yl)methyl)-1H-indazol-5-yl)-1H-pyrazolo[3,4-b]pyrazin-3-amine] it is 145 nM; for `Cc1c2cc(Nc3n[nH]c4cccnc34)ccc2nn1C1CCCC1` [Example 68, N-(2-cyclopentyl-3-methyl-2H-indazol-5-yl)-1H-pyrazolo[4,3-b]pyridin-3-amine] it is above 10000 nM. Then `Cc1cc(Nc2n[nH]c3cccnc23)cc2c1cnn2C` [Example 50, N-(1,4-dimethyl-1H-indazol-6-yl)-1H-pyrazolo[4,3-b]pyridin-3-amine], with 323 nM; and `Cc1nn(Cc2ccc3ccccc3n2)c2ccc(Nc3n[nH]c4cccnc34)cc12` [Example 125, N-(3-methyl-1-(quinolin-2-ylmethyl)-1H-indazol-5-yl)-1H-pyrazolo[4,3-b]pyridin-3-amine], with 1530 nM. For `Cn1ncc2cc(Nc3n[nH]c4c3CCCC4)cc(Cl)c21` [Example 67, 7-chloro-1-methyl-N-(4,5,6,7-tetrahydro-1H-indazol-3-yl)-1H-indazol-5-amine], the EC50 was above 10000 nM. The figure for `Cn1nc(OCC2CCCCO2)c2ccc(Nc3n[nH]c4cccnc34)cc21` (stereo not drawn) [Example 181, N-(1-methyl-3-((tetrahydro-2H-pyran-2-yl)methoxy)-1H-indazol-6-yl)-1H-pyrazolo[4,3-b]pyridin-3-amine] is 87 nM; for `c1cnc2c(Nc3ccc4c(cnn4CC4CCC4)c3)n[nH]c2c1` [Example 80, N-(1-(cyclobutylmethyl)-1H-indazol-5-yl)-1H-pyrazolo[4,3-b]pyridin-3-amine] it is 167 nM; for `Cc1cc(Cn2cc3ncc(Nc4n[nH]c5nccnc45)cc3n2)no1` [Example 145, N-(2-((5-methylisoxazol-3-yl)methyl)-2H-pyrazolo[4,3-b]pyridin-6-yl)-1H-pyrazolo[3,4-b]pyrazin-3-amine] it is above 10000 nM. Turning to `Cn1nc(Oc2ccc(C#N)cn2)c2c(Cl)cc(Nc3n[nH]c4cccnc34)cc21` [Example 207, 6-[4-chloro-1-methyl-6-(1H-pyrazolo[4,3-b]pyridin-3-ylamino)indazol-3-yl]oxypyridine-3-carbonitrile], the EC50 turned out to be 482 nM. With `Cn1nc(C(=O)N2CCCC2)c2ccc(Nc3n[nH]c4cccnc34)cc21` [Example 173, [1-methyl-6-(1H-pyrazolo[4,3-b]pyridin-3-ylamino)indazol-3-yl]-pyrrolidin-1-yl-methanone], the EC50 came to 825 nM.

In the case of `Cc1nn(Cc2noc3ccccc23)c2ccc(Nc3n[nH]c4cccnc34)cc12` [Example 92, N-(1-(benzo[d]isoxazol-3-ylmethyl)-3-methyl-1H-indazol-5-yl)-1H-pyrazolo[4,3-b]pyridin-3-amine], the EC50 amounted to 81 nM. The figure for `c1cnc2c(Nc3ccc4c(cnn4CC4CCC4)c3)n[nH]c2n1` [Example 85, N-(1-(cyclobutylmethyl)-1H-indazol-5-yl)-1H-pyrazolo[3,4-b]pyrazin-3-amine] is 57 nM; for `Cc1cc(Cn2ncc3cc(Nc4n[nH]c5nccnc45)ccc32)no1` [Example 104, N-(1-((5-methylisoxazol-3-yl)methyl)-1H-indazol-5-yl)-1H-pyrazolo[3,4-b]pyrazin-3-amine] it is 83 nM. The figure for `Cn1nc(N2CCOCC2)c2ccc(Nc3n[nH]c4cccnc34)cc21` [Example 35, N-(1-methyl-3-morpholino-1H-indazol-6-yl)-1H-pyrazolo[4,3-b]pyridin-3-amine] is 992 nM; for `Cn1nc(C(=O)N2CCC(F)CC2)c2ccc(Nc3n[nH]c4cccnc34)cc21` [Example 164, (4-fluoro-1-piperidyl)-[1-methyl-6-(1H-pyrazolo[4,3-b]pyridin-3-ylamino)indazol-3-yl]methanone] it is 1110 nM; for `Cc1nn(CC2CCC2)c2ccc(Nc3n[nH]c4ncccc34)cc12` [Example 75, N-(1-(cyclobutylmethyl)-3-methyl-1H-indazol-5-yl)-1H-pyrazolo[3,4-b]pyridin-3-amine] it is 187 nM. Then `c1nc2cnn(CC3CCC3)c2cc1Nc1n[nH]c2c1CCCC2` [Example 150, 1-(cyclobutylmethyl)-N-(4,5,6,7-tetrahydro-1H-indazol-3-yl)-1H-pyrazolo[4,3-b]pyridin-6-amine], with above 10000 nM; and `Cn1cc2c(Cl)cc(Nc3n[nH]c4cccnc34)cc2n1` [Example 3, N-(4-chloro-2-methyl-2H-indazol-6-yl)-1H-pyrazolo[4,3-b]pyridin-3-amine], with 525 nM; and `Cn1cc2cc(Nc3n[nH]c4nccnc34)ccc2n1` [Example 83], with 202 nM. Take `Cc1nn(CCCO)c2ncc(Nc3n[nH]c4cccnc34)cc12` [Example 255, 3-[3-methyl-5-(1H-pyrazolo[4,3-b]pyridin-3-ylamino)pyrazolo[3,4-b]pyridin-1-yl]propan-1-ol]: the EC50 was above 30000 nM.

For `CC(C)n1cc2cc(Nc3n[nH]c4cccnc34)cc(Cl)c2n1` [Example 62, N-(7-chloro-2-isopropyl-2H-indazol-5-yl)-1H-pyrazolo[4,3-b]pyridin-3-amine], the concentration giving a half-maximal response (EC50) worked out at 914 nM. Take `CC(C)CC1CC(=O)N(c2nn(C)c3cc(Nc4n[nH]c5cccnc45)ccc23)C1` (stereo not drawn) [Example 36, N-(6-((1H-pyrazolo[4,3-b]pyridin-3-yl)amino)-1-methyl-1H-indazol-3-yl)-4-isobutylpyrrolidin-2-one]: the EC50 turned out to be 526 nM.

Consider `Cc1nn(C)c2ccc(Nc3n[nH]c4cccnc34)cc12` [Example 108, N-(1,3-dimethyl-1H-indazol-5-yl)-1H-pyrazolo[4,3-b]pyridin-3-amine], for which the EC50 was determined as 345 nM. Consider `Cn1nc(Oc2ccc(C#N)cn2)c2ccc(Nc3n[nH]c4cccnc34)cc21` [Example 237, 6-((6-((1H-pyrazolo[4,3-b]pyridin-3-yl)amino)-1-methyl-1H-indazol-3-yl)oxy)nicotinonitrile], for which the EC50 is 157 nM. The figure for `Cc1nn(CC(C)(F)F)c2ccc(Nc3n[nH]c4cccnc34)cc12` [Example 139, N-(1-(2,2-difluoropropyl)-3-methyl-1H-indazol-5-yl)-1H-pyrazolo[4,3-b]pyridin-3-amine] is 310 nM.

For the molecule `Cn1ncc2ncc(Nc3n[nH]c4cccnc34)cc21` [Example 147, N-(1-methyl-1H-pyrazolo[4,3-b]pyridin-6-yl)-1H-pyrazolo[4,3-b]pyridin-3-amine], the EC50 came out at 1260 nM.
